Measured values: US20080292616A1, “Topical Formulations of Histone Deacetylase Inhibitors and Methods Using the Same” (Government of the United of America, Represented by the …, priority 2005, published 2008)

Experiments:
rabbits = assay: Topical tolerability study in rabbits, three times weekly for 4 weeks (Example 2); assay type: in vivo, rabbit
Protocol: The dose used is again 2.5/mg/kg/d (30 mg/m2/d) FR901228 or vehicle in AC, but is applied topically, 4 hrs. a day, for 4 weeks, three times weekly. The study parameters include weekly clinical pathology and histopathology takes place at days 27 and 41. The compositions are applied to substantially all of the rabbit's back. In the case of a human patient or other diseased subject, the composition can be applied to disease-affected and/or non-affected surface areas.

[1] = intravenous infusion over 4 hours on days 1 and 5 of a 21-day cycle; cited from earlier work
[2] = system: New Zealand white rabbits; assay: Topical toxicity study in rabbits, 4 hours daily application (Example 1); conditions: 2.5 mg/kg topically for 14 days
Protocol: A study uses New Zealand white rabbits to determine topical toxicity of the depsipeptide FR901228 when applied topically in either Cetaphil° lotion (CL) or Aquaphor cream (AC).
The dose of depsipeptide is 2.5 mg/kg/day (30 mg/m2/d); controls receive vehicle (Aquaphor or Cetaphil) in place of depsipeptide. A highly intense dosing regimen is employed to study toxicity. The study is designed for application of the respective topical composition to the rabbits for 4 hours daily for 28 days. The four-hour application is accomplished by removing the applied composition approximately four hours after application. Four groups of rabbits (2 rabbits/sex/group) are used with two control and two experimental groups. The control groups receive carrier alone (CL or AC) and the experimental groups receive FR901228 in the respective carriers. The experimental parameters include weekly testing of clinical pathology and plasma drug levels. Histopathology is performed at days 15 and 28.

[3] = FR901228 in AC, 2.5 mg/kg/d topical, 4 hrs a day, 4 weeks

In the case of `C/C=C1\NC(=O)[C@H]2CSSCC/C=C/[C@H](CC(=O)N[C@H](C(C)C)C(=O)N2)OC(=O)[C@H](C(C)C)NC1=O` [FR901228, (E)-(1S, 4S, 10S, 21R)-7-[(Z)-ethylidene]-4,21-diisopropyl-2-oxa-12,13-dithia-5,8,20,23-tetraazabicyclo [8,7,6]-tricos-16-ene-3,6,19,22-pentanone], the Draize scoring (rabbits; [3]) was “slight to well-defined”, the “onset of red skin at the application site” value (rabbits; [3]) was 9 days and the “pathology: microscopic lesions at the application site” value (rabbits; day 27, FR901228 in AC) was “ulcers of minimal severity”. For the same molecule, the “increased FBN” value (rabbits; days 4, 11, and 27, FR901228 in AC) was 1.6-2 ×, the maximum tolerated dose [1] was 17.8 mg/m2 and the “skin toxicity at the application site (conclusion)” value [2] was “significant skin toxicity at the application site”.
